Values quoted from earlier work as cited in publication PMC10723152 (Proceedings of the National Academy of Sciences of the …, 2023).

Tested on: cynomolgus macaques
Settings: adult male cynomolgus macaques, 2 Gy sublethal whole-body irradiation

## recombinant hGH: recombinant human Growth Hormone, biologic compared from the authors' previous work
  hematopoietic recovery: enhanced hematopoietic recovery
